Source: US20100261765A1, “MINERALOCORTICOID RECEPTOR MODULATORS” (priority 2007, published 2010)
Like-named read-outs stand apart in the source and are kept apart here.

Tests used:
[1] = target: T1, recombinant rhesus mineralocorticoid receptor (Macaca mulatta, UniProt A0A5F8ATS5); experiment: Mineralocorticoid receptor binding affinity, [3H]-aldosterone filter binding assay
T1 construct: made in house; host or cells: insect cells infected with recombinant baculovirus; clarified lysate used
T1 sequence (A0A5F8ATS5 1-984): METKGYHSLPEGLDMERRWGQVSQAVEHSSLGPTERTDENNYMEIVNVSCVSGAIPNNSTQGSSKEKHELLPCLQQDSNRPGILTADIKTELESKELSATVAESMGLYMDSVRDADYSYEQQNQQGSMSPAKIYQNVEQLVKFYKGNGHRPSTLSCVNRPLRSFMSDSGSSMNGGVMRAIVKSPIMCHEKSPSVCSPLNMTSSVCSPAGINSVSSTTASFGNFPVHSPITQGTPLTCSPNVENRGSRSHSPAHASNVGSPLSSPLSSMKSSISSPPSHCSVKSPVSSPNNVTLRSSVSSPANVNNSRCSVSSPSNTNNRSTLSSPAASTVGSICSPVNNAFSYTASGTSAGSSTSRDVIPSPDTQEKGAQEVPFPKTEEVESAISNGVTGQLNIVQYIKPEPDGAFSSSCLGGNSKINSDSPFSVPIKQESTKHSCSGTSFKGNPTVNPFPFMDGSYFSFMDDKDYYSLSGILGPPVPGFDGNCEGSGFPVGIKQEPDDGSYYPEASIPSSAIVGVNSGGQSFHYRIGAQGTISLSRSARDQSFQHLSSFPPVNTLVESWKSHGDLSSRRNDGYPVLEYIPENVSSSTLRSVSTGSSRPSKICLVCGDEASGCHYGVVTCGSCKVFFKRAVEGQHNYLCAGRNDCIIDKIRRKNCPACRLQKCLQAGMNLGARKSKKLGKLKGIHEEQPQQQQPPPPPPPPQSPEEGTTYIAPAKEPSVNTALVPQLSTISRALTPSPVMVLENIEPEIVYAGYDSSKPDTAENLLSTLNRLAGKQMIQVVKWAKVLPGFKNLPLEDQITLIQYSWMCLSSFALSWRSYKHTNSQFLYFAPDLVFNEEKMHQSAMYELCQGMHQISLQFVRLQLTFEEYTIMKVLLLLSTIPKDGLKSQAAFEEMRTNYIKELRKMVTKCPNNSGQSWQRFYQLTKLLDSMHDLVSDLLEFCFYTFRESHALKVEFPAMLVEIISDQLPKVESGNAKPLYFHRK
Protocol: Measurement of Mineralocorticoid Receptor Binding Affinity
The binding affinity of compounds for the mineralocorticoid receptor was determined by measuring their ability to prevent binding of radiolabeled aldosterone to recombinant rhesus mineralocorticoid receptor in a traditional filter binding assay protocol.
Rhesus mineralocorticoid receptor cDNA was cloned from a cDNA library using and used to prepare a recombinant baculovirus encoding the rhesus mineralocorticoid receptor coding sequence by standard molecular biological and cell biological methods. […] Cells were collected and lysed. The lysates were clarified by centrifugation and stored at −80 C until use in the radioligand binding assay.
[^3H]-Aldosterone (1 mCi/ml, 70-100 Ci/mmol) was purchased from Perkin Elmer (NET419). Test compounds were dissolved in DMSO and diluted in DMSO to 50 times the desired final concentrations for 3-fold serial dilution dose response curves. […] The insect cell lysate containing rhesus mineralocorticoid receptor was thawed and diluted to 0.7 mg protein/mL. Assay were started by combining 20 μL of test compound solution, 920 μL of diluted insect cell lysate, and 60 μL of [^3H]-aldosterone working solution in 2-mL 96-well polypropylene square well plates (USA Scientific) at 20° C. The mixture was incubated for 3 hr with continuous agitation on a platform shaker. […] The filter plate was washed 3 times with 0.5 mL of 50 mM Tris-HCl, pH 7.4 and then dried overnight at 37° C. in a vacuum oven. […] Non-specific radioligand binding was determined by adding non-radiolabeled aldosterone (0.5 mM in DMSO) to the assay mixture to a final concentration of 10 μM in place of test compound. IC50 and Ki values were determined using a four parameter logistic fit using a customized assay data analyzer software package.

Cav1.2 = target: T2, Cav1.2 (Homo sapiens, UniProt Q13936); experiment: Calcium channel block, FLIPR TETRA fluorescence assay in HEK293 cells expressing L-type calcium channels; format: cell-based; details: pH 7.2, 25 mM potassium; for inhibition at 30 min, 0.3 μM: 0.3 μM compound, read-out: FLIPRIETRA Cav1.2 % Inhibition 0.3 μM; for inhibition at 30 min, 1 μM: 1 μm compound, read-out: FLIPRIETRA Cav1.2 % Inhibition 1 μm; for inhibition at 30 min, 3 μM: 3 μm compound, read-out: FLIPRIETRA Cav1.2 % Inhibition 3 μm; for inhibition at 30 min, 10 μM: 10 μm compound, read-out: FLIPRIETRA Cav1.2 % Inhibition 10 μm; for inhibition at 30 min, 30 μM: 30 μm compound, read-out: FLIPRIETRA Cav1.2 % Inhibition 30 μm
T2 construct: expressed in transfected cells; host or cells: HEK293 cell line (Xia, et al., 2004) also expressing Kir2.3
T2 sequence (Q13936 whole entry): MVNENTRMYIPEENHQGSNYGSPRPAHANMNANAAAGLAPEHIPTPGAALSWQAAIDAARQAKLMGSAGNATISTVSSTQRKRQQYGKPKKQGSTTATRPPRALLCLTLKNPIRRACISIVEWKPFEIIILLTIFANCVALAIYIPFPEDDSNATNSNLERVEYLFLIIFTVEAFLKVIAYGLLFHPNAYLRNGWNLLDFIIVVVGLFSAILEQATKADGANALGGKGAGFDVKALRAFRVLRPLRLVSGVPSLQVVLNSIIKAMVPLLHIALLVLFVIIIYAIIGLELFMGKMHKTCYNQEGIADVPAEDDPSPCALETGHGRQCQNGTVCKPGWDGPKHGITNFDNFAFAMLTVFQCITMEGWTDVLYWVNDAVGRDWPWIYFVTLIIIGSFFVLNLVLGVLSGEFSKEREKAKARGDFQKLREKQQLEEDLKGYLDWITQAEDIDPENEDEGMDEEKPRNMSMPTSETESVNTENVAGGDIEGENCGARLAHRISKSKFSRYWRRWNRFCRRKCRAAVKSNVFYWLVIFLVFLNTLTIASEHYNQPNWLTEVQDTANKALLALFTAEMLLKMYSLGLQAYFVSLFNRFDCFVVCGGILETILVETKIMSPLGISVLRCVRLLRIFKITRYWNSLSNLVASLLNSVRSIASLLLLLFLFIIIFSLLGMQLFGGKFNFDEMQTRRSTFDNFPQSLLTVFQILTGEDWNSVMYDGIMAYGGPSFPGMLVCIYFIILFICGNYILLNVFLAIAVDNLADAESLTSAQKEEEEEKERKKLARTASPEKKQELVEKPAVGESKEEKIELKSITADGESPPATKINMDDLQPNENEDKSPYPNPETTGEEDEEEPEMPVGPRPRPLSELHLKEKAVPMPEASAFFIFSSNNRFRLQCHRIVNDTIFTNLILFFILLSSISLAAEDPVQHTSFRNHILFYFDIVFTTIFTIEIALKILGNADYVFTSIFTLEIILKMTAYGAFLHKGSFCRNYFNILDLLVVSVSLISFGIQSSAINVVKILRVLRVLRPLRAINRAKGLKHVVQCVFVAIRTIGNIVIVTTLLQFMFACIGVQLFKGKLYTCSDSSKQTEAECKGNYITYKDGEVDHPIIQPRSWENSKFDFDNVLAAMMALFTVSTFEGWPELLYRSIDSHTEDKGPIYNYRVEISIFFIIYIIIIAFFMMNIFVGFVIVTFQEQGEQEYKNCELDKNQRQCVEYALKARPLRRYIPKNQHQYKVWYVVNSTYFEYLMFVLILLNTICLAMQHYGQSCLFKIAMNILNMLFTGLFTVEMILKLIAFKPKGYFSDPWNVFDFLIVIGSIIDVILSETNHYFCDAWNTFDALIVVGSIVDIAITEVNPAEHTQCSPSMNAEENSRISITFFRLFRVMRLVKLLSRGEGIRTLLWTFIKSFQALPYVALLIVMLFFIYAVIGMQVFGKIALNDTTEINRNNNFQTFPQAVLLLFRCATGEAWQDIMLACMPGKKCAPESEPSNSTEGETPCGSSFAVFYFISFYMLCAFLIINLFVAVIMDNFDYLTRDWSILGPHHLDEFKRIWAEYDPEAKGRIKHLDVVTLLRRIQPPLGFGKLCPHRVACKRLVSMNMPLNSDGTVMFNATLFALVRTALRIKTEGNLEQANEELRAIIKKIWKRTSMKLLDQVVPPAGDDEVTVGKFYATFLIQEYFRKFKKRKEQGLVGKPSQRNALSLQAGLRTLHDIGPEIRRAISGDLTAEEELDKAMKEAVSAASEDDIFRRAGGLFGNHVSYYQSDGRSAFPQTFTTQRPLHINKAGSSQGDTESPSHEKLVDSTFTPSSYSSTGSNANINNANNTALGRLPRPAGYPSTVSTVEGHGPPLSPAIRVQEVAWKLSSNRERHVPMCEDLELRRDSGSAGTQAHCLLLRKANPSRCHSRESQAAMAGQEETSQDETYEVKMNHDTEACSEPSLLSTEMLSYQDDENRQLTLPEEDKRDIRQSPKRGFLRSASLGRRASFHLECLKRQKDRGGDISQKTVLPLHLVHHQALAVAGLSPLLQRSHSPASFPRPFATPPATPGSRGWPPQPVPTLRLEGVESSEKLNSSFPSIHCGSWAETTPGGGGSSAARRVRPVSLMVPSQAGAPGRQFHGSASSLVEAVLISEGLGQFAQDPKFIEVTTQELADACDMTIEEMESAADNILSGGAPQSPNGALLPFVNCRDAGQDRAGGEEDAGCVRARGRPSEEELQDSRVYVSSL
T2 sequence (P54289 25-946 partner limits assumed): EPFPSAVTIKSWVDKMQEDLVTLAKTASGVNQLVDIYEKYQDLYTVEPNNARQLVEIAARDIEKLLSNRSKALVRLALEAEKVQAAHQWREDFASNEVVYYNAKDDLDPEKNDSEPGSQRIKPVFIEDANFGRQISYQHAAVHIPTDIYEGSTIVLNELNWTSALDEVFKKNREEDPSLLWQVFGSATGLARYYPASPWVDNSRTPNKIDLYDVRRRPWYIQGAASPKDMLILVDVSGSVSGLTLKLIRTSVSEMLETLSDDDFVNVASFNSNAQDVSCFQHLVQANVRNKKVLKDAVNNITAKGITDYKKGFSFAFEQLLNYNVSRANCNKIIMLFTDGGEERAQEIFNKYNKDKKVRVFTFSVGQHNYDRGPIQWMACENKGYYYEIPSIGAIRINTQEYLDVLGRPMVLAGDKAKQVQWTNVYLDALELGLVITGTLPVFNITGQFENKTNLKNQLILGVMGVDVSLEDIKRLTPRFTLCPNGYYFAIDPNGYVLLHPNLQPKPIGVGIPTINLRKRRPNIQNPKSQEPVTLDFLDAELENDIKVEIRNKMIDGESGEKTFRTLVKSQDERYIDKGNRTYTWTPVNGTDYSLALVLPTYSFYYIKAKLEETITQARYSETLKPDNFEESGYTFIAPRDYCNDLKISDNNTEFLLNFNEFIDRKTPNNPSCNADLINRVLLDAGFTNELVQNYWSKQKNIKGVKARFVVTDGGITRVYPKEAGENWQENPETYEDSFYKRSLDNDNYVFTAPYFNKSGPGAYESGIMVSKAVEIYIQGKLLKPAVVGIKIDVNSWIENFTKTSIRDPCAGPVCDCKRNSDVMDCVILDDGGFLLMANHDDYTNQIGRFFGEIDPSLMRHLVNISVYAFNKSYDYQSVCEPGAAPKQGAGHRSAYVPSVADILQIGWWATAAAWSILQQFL
T2 sequence (P54289 947-1103 partner limits assumed): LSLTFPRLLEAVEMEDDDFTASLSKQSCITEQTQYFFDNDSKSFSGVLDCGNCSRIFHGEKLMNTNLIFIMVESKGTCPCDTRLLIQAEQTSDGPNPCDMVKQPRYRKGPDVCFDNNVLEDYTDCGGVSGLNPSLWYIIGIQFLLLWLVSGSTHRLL
T2 sequence (Q08289 whole entry partner): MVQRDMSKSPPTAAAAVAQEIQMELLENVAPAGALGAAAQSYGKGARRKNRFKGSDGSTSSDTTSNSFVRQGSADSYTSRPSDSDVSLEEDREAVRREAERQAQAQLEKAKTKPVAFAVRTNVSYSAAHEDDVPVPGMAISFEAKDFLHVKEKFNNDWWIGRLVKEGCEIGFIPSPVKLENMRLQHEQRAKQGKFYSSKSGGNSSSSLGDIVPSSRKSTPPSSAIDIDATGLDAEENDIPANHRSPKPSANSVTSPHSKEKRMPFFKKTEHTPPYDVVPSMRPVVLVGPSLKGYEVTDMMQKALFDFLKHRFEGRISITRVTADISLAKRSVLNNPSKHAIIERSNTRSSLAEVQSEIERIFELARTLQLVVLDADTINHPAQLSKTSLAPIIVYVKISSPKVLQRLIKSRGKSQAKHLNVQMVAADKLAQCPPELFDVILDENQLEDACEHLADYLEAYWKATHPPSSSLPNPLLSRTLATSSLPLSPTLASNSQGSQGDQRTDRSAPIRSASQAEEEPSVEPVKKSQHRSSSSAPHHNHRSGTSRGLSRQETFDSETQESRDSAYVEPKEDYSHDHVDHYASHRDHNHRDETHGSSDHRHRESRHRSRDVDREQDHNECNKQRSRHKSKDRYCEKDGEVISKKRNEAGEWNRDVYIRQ
Protocol: Measurement of Calcium Channel Block
A high-throughput fluorescence assay for state-dependent block of L-type channels was established as a counterscreen for blockers of N-type calcium channels. […] This allows the cell membrane potential to be preset during compound incubation, which can be used to assay state-dependent channel block. Running the assay in the presence of high potassium (25 mM) sets the membrane potential to a value (−35 mV) at which approximately half of the calcium channels are inactivated and some are open. This condition favors block by many L-type calcium channel blockers that lower blood pressure, including dihydropyridines, phenylalkylamines and benzothiazepines.
Initially, the compounds were incubated in 0.005 μM calcium and 25 mM potassium for 30 minutes. Calcium influx was triggered by buffer addition that raises the calcium concentration to 2 mM while maintaining the potassium concentration at 25 mM. Changes in intracellular calcium were then monitored using a calcium-sensitive fluorescent dye (fluo-4) and a FLIPR^TETRA plate reader.
The following experimental protocol was used:
1. Cells were seeded in a Poly-D-Lysine Coated 384-well plate (50 μl/well) and incubated overnight at 37° C. under 10% CO2;
4. Cells were then incubated in the dark at 25° C. for 30 minutes;
5. […] 25 mM KCl, 0.005 mM CaCl2, 1.7 mM MgCl2, 10 HEPES, pH=7.2;
6. 0.025 ml of 25 mM K PPB was then added, with or without the presence of a test compound;
7. Cells incubated in the dark at 25° C. for 30 min
8. Cell plates are then read on the FLIPR^TETRA instrument, Excitation=480 nm, Emission=535 nm;

[2] = test system: patients suffering from advanced CHF; details: in combination with standard CHF therapy; cited from earlier work
[3] = average of Rep#1 and Rep#2, read-out: MRBIND Ki (nM) Average
[4] = replicate 1, read-out: MRBIND Ki (nM) Rep#1
[5] = replicate 2, read-out: MRBIND Ki (nM) Rep#2

Row | Compound | Ki [1, 3] | Ki [1, 4] | Ki [1, 5] | inhibition at 30 min, 0.3 μM (Cav1.2) | inhibition at 30 min, 1 μM (Cav1.2) | inhibition at 30 min, 3 μM (Cav1.2) | inhibition at 30 min, 10 μM (Cav1.2) | inhibition at 30 min, 30 μM (Cav1.2) | reduction of cardiac related mortality [2] | reduction of frequency of hospitalization [2]
1 | COC(=O)C1=C(C)NC(C)=C(C(=O)OC)C1c1ccc(Cl)c(Cl)c1 [dimethyl 4-(3,4-dichlorophenyl)-2,6-dimethyl-1,4-dihydropyridine-3,5-dicarboxylate] | 203 nM | 83 nM | 324 nM | 34% | 59% | 77% | 87% | 89% | – | –
2 | CCOc1ccccc1C1C(C#N)=C(SC)NC(C)=C1C(=O)Nc1ccccc1 (centres unmarked) [5-cyano-4-(2-ethoxyphenyl)-2-methyl-6-(methylthio)-N-phenyl-1,4-dihydropyridine-3-carboxamide] | 1390 nM | 1140 nM | 1650 nM | 4% | 26% | 55% | 82% | – | – | –
3 | C=CCOC(=O)C1=C(C)NC(C)=C(C(=O)OCC=C)C1c1cccc([N+](=O)[O-])c1 [diallyl 2,6-dimethyl-4-(3-nitrophenyl)-1,4-dihydropyridine-3,5-dicarboxylate] | 462 nM | 472 nM | 453 nM | 81% | 83% | 82% | 81% | – | – | –
4 | COC(=O)C1=C(C)NC(C)=C(C(=O)OC)C1c1cccc2ccccc12 [Dimethyl 2,6-dimethyl-4-(1-naphthyl)-1,4-dihydropyridine-3,5-dicarboxylate] | 61 nM | 69 nM | 53 nM | 80% | 88% | 94% | 100% | 104% | – | –
5 | CCOC(=O)C1=C(C)NC(C)=C(C(=O)OC(C)C)C1c1ccc([N+](=O)[O-])cc1 (centres unmarked) [ethyl isopropyl 2,6-dimethyl-4-(4-nitrophenyl)-1,4-dihydropyridine-3,5-dicarboxylate] | 114 nM | 77 nM | 152 nM | 28% | 49% | 63% | 73% | 86% | – | –
6 | CCOC(=O)C1=C(C)NC(C)=C(C(=O)OCC)C1c1ccc([N+](=O)[O-])cc1 [diethyl 2,6-dimethyl-4-(4-nitrophenyl)-1,4-dihydropyridine-3,5-dicarboxylate] | 219 nM | 184 nM | 254 nM | 25% | 43% | 59% | 76% | – | – | –
7 | C=Cc1ccccc1C1C(C(=O)OC)=C(C)NC(C)=C1C(=O)OC [dimethyl 2,6-dimethyl-4-(2-vinylphenyl)-1,4-dihydropyridine-3,5-dicarboxylate] | 489 nM | 570 nM | 408 nM | 74% | 74% | 78% | 87% | – | – | –
8 | COc1ccccc1NC(=O)C1=C(C)NC(SC)=C(C#N)C1c1ccccc1Cl (centres unmarked) [4-(2-chlorophenyl)-5-cyano-N-(2-methoxyphenyl)-2-methyl-6-(methylthio)-1,4-dihydropyridine-3-carboxamide] | 193 nM | 250 nM | 137 nM | -3% | 14% | 35% | 74% | – | – | –
9 | CCCSC1=C(C#N)C(c2ccccc2Cl)C(C(=O)Nc2ccccc2OC)=C(C)N1 (centres unmarked) [4-(2-chlorophenyl)-5-cyano-N-(2-methoxyphenyl)-2-methyl-6-(propylthio)-1,4-dihydropyridine-3-carboxamide] | 14.9 nM | 11.6 nM | 18.2 nM | 31% | 69% | 90% | 96% | 102% | – | –
10 | CC(=O)S[C@@H]1CC2=CC(=O)CC[C@]2(C)[C@H]2CC[C@@]3(C)[C@@H](CC[C@@]34CCC(=O)O4)[C@H]12 [spironolactone] | – | – | – | – | – | – | – | – | 30% | 33%
11 | COC(=O)C1=C(C)NC(C)=C(C(=O)OC)C1c1cccc(Cl)c1Cl [dimethyl 4-(2,3-dichlorophenyl)-2,6-dimethyl-1,4-dihydropyridine-3,5-dicarboxylate] | 375 nM | 382 nM | 368 nM | 73% | 75% | 77% | 78% | 84% | – | –
12 | CCSC1=C(C#N)C(c2ccccc2Cl)C(C(=O)Nc2ccccc2OC)=C(C)N1 (centres unmarked) [4-(2-chlorophenyl)-5-cyano-6-(ethylthio)-N-(2-methoxyphenyl)-2-methyl-1,4-dihydropyridine-3-carboxamide] | 53 nM | 90 nM | 16 nM | 41% | 83% | 92% | 98% | 104% | – | –
13 | CCCC1=C(C(=O)OCC)C(c2ccccc2Cl)C(C#N)=C(SC)N1 (centres unmarked) [ethyl 4-(2-chlorophenyl)-5-cyano-6-(methylthio)-2-propyl-1,4-dihydropyridine-3-carboxylate] | 37.3 nM | 23.6 nM | 51 nM | 53% | 73% | 74% | 80% | – | – | –
